Experimental data reported in patent publication EP0346744A1, “Condensed diazepinones, process for their preparation and medicaments containing them” (Dr. Karl Thomae GmbH, priority 1988, dated 1989).
Structures can show the parent of a compound that is named as a salt.

How the values were obtained:
M2 = assay: Inhibition of vagal-stimulation bradycardia in the rat (M1/M2 selectivity, heart); type: in vivo, Ratte
Protocol: (§1) 1. M,- M2-Selektivität an der Ratte
(§2) Die angewandte Methode wurde von Hammer und Giachetti (Life Sciences 31, 2991-2998 (1982)) beschrieben. 5 Minuten nach intravenöser Injektion steigender Dosen der Substanz wurden entweder der rechte Vagus elektrisch stimuliert (Frequenz: 25 Hz; Pulsbreite: 2ms; Reizdauer: 30s; Voltzahl: supramaximal) oder 0,3 mg kg McN-A-343 in männliche THOM-Ratten intravenös injiziert. Die durch Vagusstimulation hervorgeru fene Bradykardie und der durch McN-A-343 verursachte Blutdruckanstieg wurden bestimmt. Die Dosis der Substanzen, die entweder die vagale Bradykardie (M2) oder den Blutdruckanstieg (Mi) um 50% verminderte, wurde graphisch ermittelt. Ergebnisse siehe Tabelle II.

Speichelsekretion = assay: Inhibition of pilocarpine-induced salivation in the rat; type: in vivo, Ratte; settings: iv; urethane-anaesthetised rat, i.v.; salivation induced by 2 mg/kg pilocarpine s.c.; dose reducing saliva volume by 50%; read-out: -log ED50 Salivation (converted)
Protocol: 2. Speichselsekretionshemmende Wirkung an der Ratte
Nach Lavy und Mulder (Arch. int. Pharmacodyn. 178. 437-445, (1969)) erhielten mit 1,2 glkg Urethan narkotisierte männliche THOM-Ratten steigende Dosen der Substanz i.v.. Die Speichelsekretion wurde durch s.c. Gabe von 2 mg kg Pilocarpin ausgelöst. Der Speichel wurde mit Fließpapier aufgesaugt, die von ihm eingenommene Fläche alle 5 Minuten planimetrisch bestimmt. Die Dosis der Substanz, die das Speichelvolumen um 50% verminderte, wurde graphisch ermittelt. Ergebnisse siehe Tabelle II.

M1 = assay: Inhibition of McN-A-343-induced blood pressure rise in the rat (M1/M2 selectivity); type: in vivo, Ratte
Protocol: as §1, §2

Herzfrequenz = assay: Inhibition of acetylcholine effect on heart rate of the guinea pig; type: in vivo, Meerschweinchen; settings: for ED50: Cavia porcellus, 5 min, anaesthetised guinea pig, 10 µg/kg acetylcholine 5 min after test substance, heart rate by ECG
Protocol: (§3) 3. Hemmung der Acetylcholinwirkung auf Blase, Bronchien und Herzfrequenz des Meerschweinchens
(§4) Am narkotisierten Meerschweinchen wurden 5 Minuten nach Gabe der Prüfsubstanz 10 µg/kg Acetylcholin intravenös als auch gleichzeitig intraarteriell injiziert. Dabei wurde die Herzfrequenz durch extrakorporale Ableitung des EKG, der Ausatemwiderstand nach Konzett-Rößler und die Kontraktion der freigelegten Harnblase direkt registriert. Für die Hemmung der Acetylcholinwirkung an den untersuchten Organen wurden Dosis-Wirkungskurven aufgenommen und daraus -log EDso-Werte bestimmt. Ergebnisse siehe Tabelle III.

Bronchien = assay: Inhibition of acetylcholine effect on bronchi of the guinea pig; type: in vivo, Meerschweinchen; settings: for ED50: Cavia porcellus, 5 min, anaesthetised guinea pig, 10 µg/kg acetylcholine 5 min after test substance, expiratory resistance (Konzett-Rößler), read-out: -log ED50 Bronchien (converted)
Protocol: as §3, §4

Blase = assay: Inhibition of acetylcholine effect on bladder of the guinea pig; type: in vivo, Meerschweinchen; settings: for ED50: Cavia porcellus, 5 min, anaesthetised guinea pig, 10 µg/kg acetylcholine 5 min after test substance, contraction of exposed urinary bladder, read-out: -log ED50 Blase (converted)
Protocol: as §3, §4

[1] = rat, i.v., 5 min before electrical stimulation of the right vagus, dose reducing vagal bradycardia (M2) by 50%
[2] = rat, i.v., 5 min before 0,3 mg/kg McN-A-343 i.v., dose reducing blood pressure rise (M1) by 50%

| SMILES | -log ED50 Herz (M2; [1]) | ED50 (Speichelsekretion) [µmol/kg] | -log ED50 Herz (M2; in vivo, iv) | -log ED50 Blutdruck (M1; in vivo) | -log ED50 Herz (Herzfrequenz; in vivo) | -log ED50 Bronchien (Bronchien; in vivo) | -log ED50 Blase (Blase; in vivo) | ED50 (Herzfrequenz) [µmol/kg] | ED50 (Bronchien) [µmol/kg] | ED50 (Blase) [µmol/kg] | -log ED50 Blutdruck (M1; [2]) |
| --- | --- | --- | --- | --- | --- | --- | --- | --- | --- | --- | --- |
| CCN(CC)CC1CCCCN1CC(=O)N1c2ccccc2C(=O)Nc2cccnc21 (centres unmarked) [E, 11-[[2-[(Diethylamino)methyl]-1-piperidinyl]acetyl]-5,11-dihydro-6H-pyrido[2,3-b][1,4]-benzodiazepin-6-on, reference compound] | 6,42 Mkg^-1 | 10 | – | – | – | – | – | – | – | – | – |
| CN1C2CCC1CC(OC(=O)C(CO)c1ccccc1)C2 (racemic) [G, Atropin, reference compound] | – | – | 7,94 Mkg^-1 | 7,34 Mkg^-1 | 7,70 Molkg^-1 | 7,96 Molkg^-1 | 7,03 Molkg^-1 | – | – | – | – |
| CN(CCC1CCCCCN1C)CC(=O)N1c2cc(Cl)ccc2C(=O)Nc2cccnc21 (centres unmarked) [C, 9-Chior-5,11-dihydro-11-[[[2-(1-methyl-hexahydro-1H-2-azepinyl)ethyl]methylamino]acetyl]-6H-pyrido[2,3-b][1,4]benzodiazepin-6-on-hydrochlorid] | 7,5 Mkg^-1 | 3.02 | – | – | – | – | – | 0.055 | 0.191 | 0.234 | – |
| CN(CCC1CCCCCN1C)CC(=O)N1c2ccccc2C(=O)Nc2cccnc21 (centres unmarked) [B, 5.11-Dihydro-11-[[[2-(1-methyl-hexahydro-1 H-2-azepinyi)ethyl]methylamino]acetyl]-6H-pyrido-[2,3-b][1,4]benzodiazepin6-on] | 7,41 Mkg^-1 | 3.39 | – | – | – | – | – | 0.0251 | 0.0646 | 0.269 | 6,46 Mkg^-1 |
| CN(CCC1CCCCN1C)CC(=O)N1c2ccccc2C(=O)Nc2cccnc21 (centres unmarked) [A] | 7,48 Mkg^-1 | 1.23 | – | – | – | – | – | 0.0178 | 0.0457 | 0.12 | 6,34 Mkg^-1 |
| Cc1ccc2c(c1)C(=O)Nc1cccnc1N2C(=O)CN(C)CCC1CCCCCN1C (centres unmarked) [D, 5,11-Dihydro-8-methyl-11-[[[2-(1-methyl-hexahydro-1H-2-azepinyl)ethyl]methylamino]acetyl]-6H-pyrido[2,3-b][1,4]benzodiazepin-6-on] | 7,67 Mkg^-1 | 0.617 | – | – | – | – | – | 0.0525 | 0.135 | 0.347 | – |
